Source: ChEMBL document CHEMBL4402598, “Design and Synthesis of Bitopic 2-Phenylcyclopropylmethylamine (PCPMA) Derivatives as Selective Dopamine D3 Receptor Ligands” (J Med Chem, 2020)

Legend:
D(1B) dopamine receptor = D(1B) dopamine receptor (Homo sapiens, UniProt P21918); test: Displacement of [3H]-SCH23390 from recombinant human D5 receptor transiently expressed in HEKT cell membranes measured after 90 mins by microbeta scintillation counting method
D(2) dopamine receptor = D(2) dopamine receptor (Homo sapiens, UniProt P14416); test: Displacement of [3H]-N-methylspiperone from recombinant human D2 receptor stably expressed in fibroblast cell membranes measured after 90 mins by microbeta scintillation counting method
D(1A) dopamine receptor = D(1A) dopamine receptor (Homo sapiens, UniProt P21728); test: Displacement of [3H]-SCH23390 from recombinant human D1 receptor transiently expressed in HEKT cell membranes measured after 90 mins by microbeta scintillation counting method
D(3) dopamine receptor = D(3) dopamine receptor (Homo sapiens, UniProt P35462); test: Displacement of [3H]-N-methylspiperone from recombinant human D3 receptor (unknown origin) measured after 90 mins by microbeta scintillation counting method
[1] = target: T1, 5-hydroxytryptamine receptor 2C (Homo sapiens, UniProt P28335); test: Displacement of [3H]-Mesulergine from recombinant human 5HT2C receptor expressed in HEKT cell membranes measured after 90 mins by microbeta scintillation counting method
T1 sequence (P28335 whole entry): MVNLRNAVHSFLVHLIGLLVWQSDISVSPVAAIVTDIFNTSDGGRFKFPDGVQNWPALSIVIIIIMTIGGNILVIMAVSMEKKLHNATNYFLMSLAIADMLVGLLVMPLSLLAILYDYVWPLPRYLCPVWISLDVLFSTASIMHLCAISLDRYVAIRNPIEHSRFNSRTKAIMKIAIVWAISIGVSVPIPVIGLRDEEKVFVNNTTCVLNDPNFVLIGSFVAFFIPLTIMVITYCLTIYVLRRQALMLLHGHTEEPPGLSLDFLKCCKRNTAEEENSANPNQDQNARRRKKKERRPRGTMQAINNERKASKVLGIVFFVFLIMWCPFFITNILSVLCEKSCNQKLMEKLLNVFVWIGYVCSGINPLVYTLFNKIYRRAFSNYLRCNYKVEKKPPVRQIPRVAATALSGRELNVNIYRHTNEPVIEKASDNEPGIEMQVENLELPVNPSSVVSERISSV

D(4) dopamine receptor = target: T2, D(4) dopamine receptor (Homo sapiens, UniProt P21917); test: Displacement of [3H]-N-methylspiperone from recombinant human D4 receptor stably expressed in HEK cell membranes measured after 90 mins by microbeta scintillation counting method
T2 sequence (P21917 whole entry): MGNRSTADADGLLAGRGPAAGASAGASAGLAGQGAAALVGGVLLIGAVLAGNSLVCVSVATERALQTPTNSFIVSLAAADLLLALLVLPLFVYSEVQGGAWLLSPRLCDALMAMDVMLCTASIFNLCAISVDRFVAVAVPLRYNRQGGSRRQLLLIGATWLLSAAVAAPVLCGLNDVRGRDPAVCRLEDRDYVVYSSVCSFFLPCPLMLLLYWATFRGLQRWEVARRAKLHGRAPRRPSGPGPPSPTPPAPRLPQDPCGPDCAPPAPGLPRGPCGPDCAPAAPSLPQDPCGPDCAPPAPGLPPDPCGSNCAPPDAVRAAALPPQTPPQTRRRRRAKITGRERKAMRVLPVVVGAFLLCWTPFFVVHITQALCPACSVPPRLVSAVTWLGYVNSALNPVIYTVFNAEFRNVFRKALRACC

Chain of D(3) dopamine receptor (P35462 whole entry): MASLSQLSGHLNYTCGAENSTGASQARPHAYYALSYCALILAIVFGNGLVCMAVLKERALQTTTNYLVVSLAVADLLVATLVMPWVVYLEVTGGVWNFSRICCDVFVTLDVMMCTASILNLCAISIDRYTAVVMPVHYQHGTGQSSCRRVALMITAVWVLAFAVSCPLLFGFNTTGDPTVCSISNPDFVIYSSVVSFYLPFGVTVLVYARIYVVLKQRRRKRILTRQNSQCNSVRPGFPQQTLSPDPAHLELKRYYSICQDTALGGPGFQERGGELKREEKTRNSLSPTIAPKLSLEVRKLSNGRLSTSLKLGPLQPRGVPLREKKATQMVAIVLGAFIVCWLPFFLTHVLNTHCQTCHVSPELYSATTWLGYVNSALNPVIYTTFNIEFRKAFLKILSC
Chain of D(1B) dopamine receptor (P21918 whole entry): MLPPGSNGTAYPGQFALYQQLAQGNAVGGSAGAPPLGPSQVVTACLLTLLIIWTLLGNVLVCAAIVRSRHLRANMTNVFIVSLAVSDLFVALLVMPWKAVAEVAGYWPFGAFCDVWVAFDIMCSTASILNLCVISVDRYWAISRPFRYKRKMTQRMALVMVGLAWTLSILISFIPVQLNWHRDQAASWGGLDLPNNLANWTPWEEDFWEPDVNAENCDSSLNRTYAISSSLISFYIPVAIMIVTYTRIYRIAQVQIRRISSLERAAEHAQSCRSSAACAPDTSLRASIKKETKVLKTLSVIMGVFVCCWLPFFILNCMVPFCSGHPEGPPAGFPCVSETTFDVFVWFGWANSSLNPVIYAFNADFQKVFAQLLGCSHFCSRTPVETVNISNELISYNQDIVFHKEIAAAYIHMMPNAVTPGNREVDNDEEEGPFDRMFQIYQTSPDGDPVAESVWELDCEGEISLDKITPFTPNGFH
Chain of D(2) dopamine receptor (P14416 whole entry): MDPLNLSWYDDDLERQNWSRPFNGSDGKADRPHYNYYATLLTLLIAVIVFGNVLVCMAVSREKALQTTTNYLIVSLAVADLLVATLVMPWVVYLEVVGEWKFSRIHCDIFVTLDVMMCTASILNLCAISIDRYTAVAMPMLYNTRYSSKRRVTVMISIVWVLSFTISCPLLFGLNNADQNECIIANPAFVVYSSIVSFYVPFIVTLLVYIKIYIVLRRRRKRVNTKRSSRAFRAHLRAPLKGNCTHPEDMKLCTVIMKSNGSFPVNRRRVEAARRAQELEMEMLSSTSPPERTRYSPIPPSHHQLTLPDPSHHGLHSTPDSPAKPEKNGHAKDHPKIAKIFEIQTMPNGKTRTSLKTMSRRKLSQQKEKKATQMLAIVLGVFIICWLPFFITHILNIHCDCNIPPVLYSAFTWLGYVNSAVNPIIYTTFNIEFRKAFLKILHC
Chain of D(1A) dopamine receptor (P21728 whole entry): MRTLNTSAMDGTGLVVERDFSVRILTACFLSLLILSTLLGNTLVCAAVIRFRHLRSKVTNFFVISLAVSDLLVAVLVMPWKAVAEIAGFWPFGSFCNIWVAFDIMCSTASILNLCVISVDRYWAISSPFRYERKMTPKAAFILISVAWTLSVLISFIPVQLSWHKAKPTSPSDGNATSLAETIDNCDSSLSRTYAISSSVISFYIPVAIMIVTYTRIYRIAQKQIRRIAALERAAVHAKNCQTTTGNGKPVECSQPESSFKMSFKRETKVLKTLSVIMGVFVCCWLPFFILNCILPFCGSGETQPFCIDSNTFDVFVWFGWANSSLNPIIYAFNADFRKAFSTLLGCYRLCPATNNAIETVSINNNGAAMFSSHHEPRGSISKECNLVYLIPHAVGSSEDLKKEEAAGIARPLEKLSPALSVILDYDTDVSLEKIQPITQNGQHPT

Row | SMILES | Ki (D(1B) dopamine receptor) [nM] | Ki (D(2) dopamine receptor) [nM] | Ki (D(1A) dopamine receptor) [nM] | Ki (D(3) dopamine receptor) [nM] | Ki [1] [nM] | Ki (D(4) dopamine receptor) [nM]
1 | CCCN(CCCSc1nnc(-c2ccccc2)n1C)CC1CC1c1cc(F)ccc1OC (stereo unspecified) | > 5000 | 1160 | 1670 | 87.1 | 412 | 85.8
2 | Cn1c(SCCCNCC2CC2c2cc(F)ccc2OCCF)nnc1-c1ccccc1 (stereo unspecified) | 1080 | 1500 | 369 | 525 |  | 962
3 | CCCN(CCCCNC(=O)c1ccc(-c2ccccn2)cc1)CC1CC1c1ccc(Cl)cc1 (stereo unspecified) | 8840 | > 5000 | 1310 | 17.6 | 284 | 1410
4 | CCCN(CCCCNC(=O)c1ccc2ccccc2c1)CC1CC1c1cccc(F)c1 (stereo unspecified) | > 5000 | 4820 | 1310 | 26.7 | 165 | 1300
5 | CCCN(CCCCNC(=O)c1cc2ccccc2[nH]1)CC1CC1c1ccc(C(F)(F)F)cc1 (stereo unspecified) | 8190 | > 5000 | 1280 | 33.1 | 1310 | 2070
6 | CCCN(CCCCNC(=O)c1ccc2ccccc2c1)CC1CC1c1cccc(Cl)c1 (stereo unspecified) | 8670 | 4010 | 940 | 15.5 | 136 | 1320
7 | CCOc1ccc(F)cc1C1CC1CN(CC)CCCSc1nnc(-c2ccccc2)n1C (stereo unspecified) | 1580 | 380 | 1150 | 55 |  | 101
8 | CN(CCCSc1nnc(-c2ccccc2)n1C)CC1CC1c1cc(F)ccc1OCCF (stereo unspecified) | 2150 | 2440 | 1470 | 562 |  | 977
9 | CCCN(CCCCNC(=O)c1cc2ccccc2[nH]1)CC1CC1c1cc(Cl)ccc1OC (stereo unspecified) | 4230 | 1420 | 818 | 11.5 | 85.1 | 575
10 | CCCN(CCCCNC(=O)c1ccc2ccccc2c1)CC1CC1c1cc(Cl)ccc1OC (stereo unspecified) | 1100 | 1120 | 930 | 26.9 | 85 | 945
11 | CCCN(CCCCNC(=O)c1ccc2ccccc2c1)CC1CC1c1cc(F)ccc1OC (stereo unspecified) | 2200 | 1080 | 967 | 14.5 | 63.1 | 844
12 | CCCN(CCCCNC(=O)c1ccc(-c2ccccn2)cc1)CC1CC1c1cc(Cl)ccc1OC (stereo unspecified) | > 5000 | 2100 | > 5000 | 39.4 | 136 | 1830
13 | COc1ccc(F)cc1C1CC1CNCCCSc1nnc(-c2ccccc2)n1C (stereo unspecified) | 926 | 253 | 631 | 89.8 |  | 133
14 | CCCN(CCCCNC(=O)c1cc2ccccc2[nH]1)CC1CC1c1cccc(F)c1 (stereo unspecified) | > 5000 | 3490 | 1100 | 18.8 | 106 | 671
15 | CCN(CCCCNC(=O)c1ccc2ccccc2c1)CC1CC1c1cc(Cl)ccc1OC (stereo unspecified) | 571 | 408 | 1980 | 23.4 | 49 | 553
16 | CCCN(CCCCNC(=O)c1ccc(-c2ccccn2)cc1)CC1CC1c1cccc(Cl)c1Cl (racemic) | > 5000 |  | 1650 |  | 97.7 | 2010
17 | CCCN(CCCCNC(=O)c1cc2ccccc2[nH]1)CC1CC1c1cccc(Cl)c1 (stereo unspecified) | > 5000 | 3490 | 992 | 11.1 | 132 | 878
18 | CCCN(CCCCNC(=O)c1ccc2ccccc2c1)CC1CC1c1ccc(C(F)(F)F)cc1 (stereo unspecified) | 5800 | > 5000 | 1710 | 43 | 1260 | 215

Row | SMILES | Ki (D(1B) dopamine receptor) [nM] | Ki (D(2) dopamine receptor) [nM] | Ki (D(1A) dopamine receptor) [nM] | Ki (D(3) dopamine receptor) [nM] | Ki [1] [nM] | Ki (D(4) dopamine receptor) [nM]
19 | COc1ccc(Cl)cc1C1CC1CN(CCCSc1nnc(-c2ccccc2)n1C)CC1CC1 (stereo unspecified) | > 5000 | 216 | 636 | 23.7 | 274 | 163
20 | CCCN(CCCCNC(=O)c1ccc(-c2ccccn2)cc1)CC1CC1c1cccc(Cl)c1 (stereo unspecified) | 5580 | > 5000 | 832 | 26.5 | 898 | 2330
21 | COc1ccc(F)cc1C1CC1CN(CCCSc1nnc(-c2ccccc2)n1C)CC1CC1 (stereo unspecified) | 1200 | > 5000 | 1080 | 64.6 | 126 | 292
22 | CCN(CCCSc1nnc(-c2ccccc2)n1C)CC1CC1c1cc(F)ccc1OC (stereo unspecified) | 1850 | 275 | 1720 | 44 |  | 30
23 | CCN(CCCCNC(=O)c1cc2ccccc2[nH]1)CC1CC1c1cc(F)ccc1OC (stereo unspecified) | > 5000 | 380 | 1080 | 23.4 | 49 | 220
24 | CCCN(CCCCNC(=O)c1cc2ccccc2[nH]1)CC1CC1c1cccc(Cl)c1Cl (racemic) | 3500 | 1500 | 891 |  | 105 | 1130
25 | CCCN(CCCCNC(=O)c1cc2ccccc2[nH]1)CC1CC1c1cc(F)ccc1OC (stereo unspecified) | 789 | 507 | 871 | 11.2 | 68 | 376
26 | CCOc1ccc(F)cc1C1CC1CN(C)CCCSc1nnc(-c2ccccc2)n1C (stereo unspecified) | > 5000 | > 5000 | 1120 | 550 |  | 989
27 | CCN(CCCCNC(=O)c1ccc2ccccc2c1)CC1CC1c1cc(F)ccc1OC (stereo unspecified) | 1720 | 407 | 986 | 15 | 57.5 | 385
28 | CCN(CCCSc1nnc(-c2ccccc2)n1C)CC1CC1c1cc(Cl)ccc1OC (stereo unspecified) | > 5000 | 238 | 1510 | 31.6 | 203 | 241
29 | CCCN(CCCCNC(=O)c1ccc2ccccc2c1)CC1CC1c1ccc(Cl)cc1 (stereo unspecified) | 6110 | 4610 | 509 | 32.6 | 179 | 1590
30 | CCCN(CCCCNC(=O)c1cc2ccccc2[nH]1)CC1CC1c1ccc(Cl)cc1 (stereo unspecified) | 9290 | 3160 | 649 | 25.7 | 137 | 510
31 | CCN(CCCSc1nnc(-c2ccccc2)n1C)CC1CC1c1cc(F)ccc1OCCF (stereo unspecified) | 2000 | 845 | 584 | 113 |  | 179
32 | CCOc1ccc(F)cc1C1CC1CNCCCSc1nnc(-c2ccccc2)n1C (stereo unspecified) | 589 | 661 | 295 | 219 |  | 501
33 | CCCN(CCCCNC(=O)c1ccc2ccccc2c1)CC1CC1c1cccc(Cl)c1Cl (racemic) | 4020 | 2100 | 891 |  | 123 | 1340
34 | COc1ccc(F)cc1C1CC1CN(C)CCCSc1nnc(-c2ccccc2)n1C (stereo unspecified) | 1000 | 324 | 794 | 84.5 |  | 85.1
35 | CCCN(CCCCNC(=O)c1ccc(-c2ccccn2)cc1)CC1CC1c1cc(F)ccc1OC (racemic) | > 5000 | 3140 | 1760 |  | 53 | 1140
